The source of these data is patent US10329302B2, “Bicyclic-fused heteroaryl or aryl compounds” (Pfizer Inc., priority 2014, dated 2019).

Assay [1] addresses human IRAK4 kinase domain (aa 154-460) (Homo sapiens (Human), UniProt Q9NWZ3). The assay can be described thus: IRAK4 Enzymatic DELFIA Assay, Protocol B. It counts as biochemical. The source says: IRAK4 Enzymatic DELFIA Assay, Protocol B.
Assay [2] deals with R848-induced TNFα production by human peripheral blood mononuclear cells (PBMCs). Briefly: R848 Induced TNFα in Human PBMC Assay. It counts as cell-based. The conditions noted are these: Homo sapiens, PBMC, 3 h, read-out: R848-induced TNFa PBMC IC50 (nM).
Excerpt: This protocol is for R848-induced TNFα production by human peripheral blood mononuclear cells (PBMCs). […] The assay is used to assess cell-based potency of small molecule inhibitors of IRAK4 in the absence of serum.
The PBMCs in the interphase layer were collected and washed with PBS via centrifugation multiple times until the supernatant is clear. The purified PBMCs were re-suspended in RPMI (Roswell Park Memorial Institute) media (Sigma-Aldrich).
For the assay, a compound dilution plate containing a top concentration of 4 mM compound in DMSO was serially diluted 4-fold for 11 times. 250 nL of the compound dilution plate was spotted into a 384-well, flat bottom with lid, TC-treated, black with clear bottom, sterile, polystyrene plate (Corning Life Sciences).
10 μL of anti-TNFα antibody labeled with MSD SULFO-TAG at 50 μg/mL was added to each well and allowed to incubate overnight at 4° C.
Assay [3] addresses human IRAK4 FL (Full Length) (Homo sapiens (Human), UniProt Q9NWZ3). Briefly: IRAK4 Enzymatic DELFIA Assay, Protocol A. It counts as biochemical. The conditions noted are these: human IRAK4 FL, 0.6 mM ATP (KM); read-out: IRAK4 DELFIA Protocol A IC50.
Where [4] appears, read: human IRAK4 kinase domain (aa 154-460), 0.6 mM ATP (KM), read-out: IRAK4 DELFIA Protocol B IC50.

Where two headings read alike, the source gives them in different places.

Chain of human IRAK4 kinase domain (aa 154-460) (Q9NWZ3 154-460): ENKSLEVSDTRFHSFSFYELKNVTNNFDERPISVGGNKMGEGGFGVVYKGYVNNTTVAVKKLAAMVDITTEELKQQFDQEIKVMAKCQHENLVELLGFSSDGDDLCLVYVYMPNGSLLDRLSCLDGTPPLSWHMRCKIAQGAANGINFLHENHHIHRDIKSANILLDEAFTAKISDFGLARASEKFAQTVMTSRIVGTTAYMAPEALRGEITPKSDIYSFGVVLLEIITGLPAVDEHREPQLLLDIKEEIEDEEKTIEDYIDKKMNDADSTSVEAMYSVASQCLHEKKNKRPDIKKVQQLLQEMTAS
Chain of human IRAK4 FL (Full Length) (Q9NWZ3 whole entry, the tested form may be a part): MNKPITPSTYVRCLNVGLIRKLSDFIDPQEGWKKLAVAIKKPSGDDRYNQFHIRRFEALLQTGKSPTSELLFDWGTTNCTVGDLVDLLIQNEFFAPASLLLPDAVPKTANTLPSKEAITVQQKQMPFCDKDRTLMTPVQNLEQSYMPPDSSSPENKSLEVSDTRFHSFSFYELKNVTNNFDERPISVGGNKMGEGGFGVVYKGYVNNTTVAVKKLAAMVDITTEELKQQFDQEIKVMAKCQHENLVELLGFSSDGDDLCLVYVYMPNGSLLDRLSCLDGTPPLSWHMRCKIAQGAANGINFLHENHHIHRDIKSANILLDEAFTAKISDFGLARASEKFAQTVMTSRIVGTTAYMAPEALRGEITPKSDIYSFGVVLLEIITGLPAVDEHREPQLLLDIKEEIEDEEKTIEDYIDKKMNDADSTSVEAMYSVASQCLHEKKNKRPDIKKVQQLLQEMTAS

One may read the IC50 as the concentration that inhibits the measured activity by half. As to `CC(C)Oc1cc2c(OC[C@@]34C[C@@H]3CN(C(=O)CC#N)C4)nccc2cc1C(N)=O` [Example 77, 1-{[(1S,5S)-3-(cyanoacetyl)-3-azabicyclo[3.1.0]hex-1-yl]methoxy}-7-(propan-2-yloxy)isoquinoline-6-carboxamide], the IC50 in assay [1] (setting [4]) is 468 nM.
On the same count and under the same terms, the result for `CC(C)Oc1cc2c(OC[C@@]34CNC[C@@H]3C4)nccc2cc1C(N)=O` [Example 140, 1-[(1R,5R)-3-azabicyclo[3.1.0]hex-1-ylmethoxy]-7-(propan-2-yloxy)isoquinoline-6-carboxamide] reads 84 nM.
Same read-out and setting: the result for `CC(C)Oc1cc2c(OC[C@@H]3COCCN3C(=O)CC#N)nccc2cc1C(N)=O` [Example 83, 1-{[(3S)-4-(cyanoacetyl)morpholin-3-yl]methoxy}-7-(propan-2-yloxy)isoquinoline-6-carboxamide] reads 175 nM.
The same measure, in the same setting: the result for `CC(C)Oc1cc2c(OCC3CCCN(C)C3)nccc2cc1C(N)=O` (stereo not shown) [Example 45, 1-[(1-methylpiperidin-3-yl)methoxy]-7-(propan-2-yloxy)isoquinoline-6-carboxamide] reads 1920 nM.
For the compound `CC(C)Oc1cc2c(OC[C@H]3CNCCO3)ccnc2cc1C(N)=O` [Example 53, 4-[(2R)-morpholin-2-ylmethoxy]-6-(propan-2-yloxy)quinoline-7-carboxamide], the IC50 in assay [1] (setting [4]) was determined as 2380 nM.
Turning to `CC(C)Oc1cc2c(OCC3CCCS(=O)(=O)N3)nccc2cc1C(N)=O` (stereo not shown) [Example 27, 1-[(1,1-dioxido-1,2-thiazinan-3-yl)methoxy]-7-(propan-2-yloxy)isoquinoline-6-carboxamide], the IC50 in assay [1] (setting [4]) was found to be 2480 nM.
Still for that read-out and setting: the result for `CC(C)Oc1cc2c(OC[C@@]3(C)CNC[C@@H]3C)ccnc2cc1C(N)=O` [Example 55, 4-{[(3R,4R)-3,4-dimethylpyrrolidin-3-yl]methoxy}-6-(propan-2-yloxy)quinoline-7-carboxamide] reads 264 nM.
With `CC(C)Oc1cc2c(OCC3(C)COC3)ccnc2cc1C(N)=O` [Example 12, 4-[(3-methyloxetan-3-yl)methoxy]-6-(propan-2-yloxy)quinoline-7-carboxamide], the half-maximal inhibitory concentration (IC50) in assay [1] (setting [4]) came to 1040 nM.
On the same count and under the same terms, the result for `CC(C)Oc1cc2c(OCC3(F)CCN(C(=O)CC#N)CC3)nccc2cc1C(N)=O` [Example 76, 1-{[1-(cyanoacetyl)-4-fluoropiperidin-4-yl]methoxy}-7-(propan-2-yloxy)isoquinoline-6-carboxamide] reads 1720 nM; that for `CC(C)Oc1cc2c(OC[C@@]34C[C@@H]3CN(C(=O)CC#N)C4)ccnc2cc1C(N)=O` [Example 90, 4-{[(1S,5S)-3-(cyanoacetyl)-3-azabicyclo[3.1.0]hex-1-yl]methoxy}-6-(propan-2-yloxy)quinoline-7-carboxamide], 438 nM.
In the case of `CC(C)Oc1cc2c(OC3CC4CCC3C4)ccnc2cc1C(N)=O` (stereo not shown) [Example 16, 4-(bicyclo[2.2.1]hept-2-yloxy)-6-(propan-2-yloxy)quinoline-7-carboxamide], in assay [1], inhibition was half-maximal at 386 nM (IC50).
Consider `CC(C)Oc1cc2c(OC(C)C3CCC3)ccnc2cc1C(N)=O` (stereo not shown) [Example 8, 4-(1-cyclobutylethoxy)-6-(propan-2-yloxy)quinoline-7-carboxamide], for which, in assay [1] (setting [4]), the IC50 is 834 nM.
On the same count and under the same terms, the result for `CC(C)Oc1cc2c(OC[C@]34CNC[C@H]3C4)nccc2cc1C(N)=O` [Example 40, 1-[(1S,5S)-3-azabicyclo[3.1.0]hex-1-ylmethoxy]-7-(propan-2-yloxy)isoquinoline-6-carboxamide] reads 109 nM; that for `CC(C)Oc1cc2c(O[C@H]3C[C@@H]4C[C@H]3CN4)nccc2cc1C(N)=O` [Example 101, 1-[(1S,4S,5S)-2-azabicyclo[2.2.1]hept-5-yloxy]-7-(propan-2-yloxy)isoquinoline-6-carboxamide], 1180 nM; that for `CC(C)Oc1cc2c(OC[C@H]3CCCN3)nccc2cc1C(N)=O` [Example 41, 7-(propan-2-yloxy)-1-[(2R)-pyrrolidin-2-ylmethoxy]isoquinoline-6-carboxamide], 2350 nM.
On the same count and under the same terms, the result for `CC(=O)N1CCC(COc2nccc3cc(C(N)=O)c(OC(C)C)cc23)CC1` [Example 33, 1-[(1-acetylpiperidin-4-yl)methoxy]-7-(propan-2-yloxy)isoquinoline-6-carboxamide] reads 2860 nM; that for `CC(C)Oc1cc2c(OC[C@@H]3CCCNC3)nccc2cc1C(N)=O` [Example 48, 1-[(3R)-piperidin-3-ylmethoxy]-7-(propan-2-yloxy)isoquinoline-6-carboxamide], 366 nM; that for `CC(C)Oc1cc2c(OCC3(F)CCNCC3)ccnc2cc1C(N)=O` [Example 54, 4-[(4-fluoropiperidin-4-yl)methoxy]-6-(propan-2-yloxy)quinoline-7-carboxamide], 2440 nM.
Still for that read-out and setting: the result for `CC(C)Oc1cc2c(OC[C@@H]3[C@H]4CN(C(=O)CC#N)C[C@@H]34)ccnc2cc1C(N)=O` [Example 87, 4-{[(1R,5S,6r)-3-(cyanoacetyl)-3-azabicyclo[3.1.0]hex-6-yl]methoxy}-6-(propan-2-yloxy)quinoline-7-carboxamide] reads 2620 nM.
In the case of `CC(C)Oc1cc2c(OCC3(NC(=O)CC#N)CCCC3)nccc2cc1C(N)=O` [Example 65, 1-({1-[(cyanoacetyl)amino]cyclopentyl}methoxy)-7-(propan-2-yloxy)isoquinoline-6-carboxamide], in assay [1] (setting [4]), the IC50 was found to be 563 nM.
Same read-out and setting: the result for `CC(C)Oc1cc2c(OC[C@@H]3CCNC3)nccc2cc1C(N)=O` [Example 117, 7-(propan-2-yloxy)-1-[(3R)-pyrrolidin-3-ylmethoxy]isoquinoline-6-carboxamide] reads 136 nM.
Compound `CC(C)Oc1cc2c(OC3C4CC5C(C4)C53)ccnc2cc1C(N)=O` (stereo not shown) [Example 17, 6-(propan-2-yloxy)-4-(tricyclo[2.2.1.0~2,6~]hept-3-yloxy)quinoline-7-carboxamide] yielded a half-inhibitory concentration (IC50) in assay [1] of 476 nM.
On to `CC(C)Oc1cc2c(O[C@H]3C[C@@H]4CN[C@H]3C4)nccc2cc1C(N)=O` [Example 109, 1-[(1S,4R,6S)-2-azabicyclo[2.2.1]hept-6-yloxy]-7-(propan-2-yloxy)isoquinoline-6-carboxamide], for which the half-inhibitory concentration (IC50) in assay [1] (setting [4]) worked out at 1910 nM.
Same read-out and setting: the result for `CC(C)Oc1cc2c(OCC3CCN(C(=O)CC#N)CC3)nccc2cc1C(N)=O` [Example 62, 1-{[1-(cyanoacetyl)piperidin-4-yl]methoxy}-7-(propan-2-yloxy)isoquinoline-6-carboxamide] reads 1290 nM; that for `CC(C)Oc1cc2c(OCC3(C)CCN(C(=O)CC#N)CC3)ccnc2cc1C(N)=O` [Example 91, 4-{[1-(cyanoacetyl)-4-methylpiperidin-4-yl]methoxy}-6-(propan-2-yloxy)quinoline-7-carboxamide], 489 nM; that for `CC(C)Oc1cc2c(O[C@@H]3C[C@H]4C[C@@H]3CN(C(=O)CC#N)C4)nccc2cc1C(N)=O` [Example 68, 1-{[(1R,5R,6R)-3-(cyanoacetyl)-3-azabicyclo[3.2.1]oct-6-yl]oxy}-7-(propan-2-yloxy)isoquinoline-6-carboxamide], 320 nM.
Same read-out and setting: the result for `CC(C)Oc1cc2c(OCC3CNC3)ccnc2cc1C(N)=O` [Example 1, 4-(azetidin-3-ylmethoxy)-6-(propan-2-yloxy)quinoline-7-carboxamide] reads 2910 nM.
Turning to `COc1cc2c(OC[C@@H]3COC(=O)N3)cccc2cc1C(N)=O` [Example 233, 3-methoxy-5-{[(4R)-2-oxo-1,3-oxazolidin-4-yl]methoxy}naphthalene-2-carboxamide], the IC50 was found to be 47 nM in assay [2] and 0.3 nM in assay [3].
With `CC(C)Oc1cc2c(OC[C@@H]3C[C@](C)(F)C(=O)N3)nccc2cc1C(N)=O` [Example 134, 1-{[(2S,4S)-4-fluoro-4-methyl-5-oxopyrrolidin-2-yl]methoxy}-7-(propan-2-yloxy)isoquinoline-6-carboxamide], the IC50 in assay [2] stood at 36 nM; in assay [3], 1 nM.
Turning to `CC[C@@H]1CC(=O)N[C@@H]1COc1nccc2cc(C(N)=O)c(OC)c(F)c12` [Example 363, 1-{[(2S,3R)-3-ethyl-5-oxopyrrolidin-2-yl]methoxy}-8-fluoro-7-methoxyisoquinoline-6-carboxamide], the IC50 in assay [2] was determined as 110 nM; in assay [3] it was 11 nM.
Taken in the same sequence, the figures for `CC(C)Oc1cc2c(OC[C@@H]3C[C@H](C)C(=O)N3)nccc2cc1C(N)=O` [Example 125, 1-{[(2S,4S)-4-methyl-5-oxopyrrolidin-2-yl]methoxy}-7-(propan-2-yloxy)isoquinoline-6-carboxamide] were 685 nM and 40 nM.
For `CC(C)Oc1cc2c(OC[C@@H]3CCC(=O)N3)ncc(-c3cn(C)cn3)c2cc1C(N)=O` [Example 371, 4-(1-methyl-1H-imidazol-4-yl)-1-{[(2S)-5-oxopyrrolidin-2-yl]methoxy}-7-(propan-2-yloxy)isoquinoline-6-carboxamide] the same measures were 604 nM and 7 nM.
Taken in the same sequence, the figures for `COc1cc2c(OC[C@H]3NC(=O)O[C@H]3C)cccc2cc1C(N)=O` [Example 234, 3-methoxy-5-{[(4R,5S)-5-methyl-2-oxo-1,3-oxazolidin-4-yl]methoxy}naphthalene-2-carboxamide] were 45 nM and 1.9 nM.
For `COc1cc2c(OC[C@H]3NC(=O)[C@@H](F)[C@H]3C)nccc2cc1C#N` [Example 272, 1-{[(2S,3S,4S)-4-fluoro-3-methyl-5-oxopyrrolidin-2-yl]methoxy}-7-methoxyisoquinoline-6-carbonitrile], the IC50 in assay [2] came out at 2470 nM; in assay [3] it was 432 nM.
Regarding `CC[C@]1(F)C[C@@H](COc2ccnc3cc(C(N)=O)c(OC)cc23)NC1=O` [Example 259, 4-{[(2S,4S)-4-ethyl-4-fluoro-5-oxopyrrolidin-2-yl]methoxy}-6-methoxyquinoline-7-carboxamide], the IC50 in assay [2] amounted to 120 nM; in assay [3], 3.1 nM.
